Structures can show the parent of a compound that is named as a salt.
Legend:
[1] = tested on: duplex oligomer d(CGCGAATTCGCG)2 (A2 T2); experiment: Thermal melting with the duplex oligomer, ranking of relative DNA binding affinities; conditions: duplex oligomer A2T2
Excerpt: (§1) Table 2 contains thermal melting results from evaluation of the interaction of compounds 3, 5 and 7 with the DNA duplex polymer poly(dA-dT). In order to rank the relative binding affinities for interactions with DNA, the duplex oligomer d(CGCGAATTCGCG)2 (A2 T2) was employed. […] The increase in melting temperature on complex formation with the furan dications are related to the binding affinities of these molecules with nucleic acid. This enhanced DNA affinity of the N-alkyl substituted amidines is though to the in large part due to additional non-bonded interactions between the alkyl groups and the walls of the minor groove.
^b) Increase in thermal melting of the oligomer […], see

[2] = tested on: DNA duplex polymer poly(dA-dT); experiment: Thermal melting, interaction with the DNA duplex polymer poly(dA-dT); type: binding
Excerpt: as §1
^a) Increase in thermal melting of polyA-- polyT, see Boykin, […]

[3] = Toxicity in the immunosuppressed rat model of Pneumocystis carinii pneumonia; type: in vivo; conditions: iv
Excerpt: Data obtained with pentamidine, a compound currently used clinically for treatment of PCP, are included for comparison.
^c) Evluation of iv dosage of the furon dicatons against P. carinii i
rats as descibed in Boykin, supra.

Pneumocystis carinii = experiment: In vivo evaluation on intravenous administration against P. carinii in the immunosuppressed rat model; conditions: saline = 100.0

Row | SMILES | ΔTM (oligomer), increase in thermal melting of the oligomer [1] | ΔTm (DNA), increase in thermal melting of polyA-polyT [2] | Toxicity ([3]; 10.0 umol/kg/d) | Cysts/g lung (Pneumocystis carinii; 1.0 umol/kg/d) | Cysts/g lung (Pneumocystis carinii; 10.0 umol/kg/d) | Toxicity ([3]; 0.25 umol/kg/d) | Toxicity ([3]; 1.0 umol/kg/d) | Toxicity ([3]; 5.0 umol/kg/d) | Cysts/g lung (Pneumocystis carinii; 0.25 umol/kg/d) | Cysts/g lung (Pneumocystis carinii; 5.0 umol/kg/d) | Cysts/g lung (Pneumocystis carinii; 22.0 umol/kg/d)
1 | CC(C)CNC(=N)c1ccc(-c2coc(-c3ccc(C(=N)NCC(C)C)cc3)c2)cc1 [Compound 3, 2-,4-Bis[4-{-(i-butylamidino)phenyl}]furan] | 9.3 | 20.4 | – | – | – | – | – | – | – | – | –
2 | N=C(NC1CCCC1)c1ccc(-c2coc(-c3ccc(C(=N)NC4CCCC4)cc3)c2)cc1 [Compound 4, 2,4-Bis[4-{N-(cyelopentylamidino)phenyl}]furan] | 13.6 | 20.4 | 0 | 3.21 % of control | 0.06 % of control | – | – | – | – | – | –
3 | c1cc(-c2coc(-c3ccc(C4=NCCN4)cc3)c2)ccc1C1=NCCN1 [Compound 5, 2,4-Bis[4,5-dihydro-1H-imidazol-2-yl)phenyl]furan Dihydrochloride] | 7.2 | 16.8 | – | – | – | – | – | – | – | – | –
4 | CC(C)NC(=N)c1ccc(-c2coc(-c3ccc(C(=N)NC(C)C)cc3)c2)cc1 [Compound 2, 2,4-Bis[4-{N-(i-propylamidino)phenyl}]furan] | 10.9 | 17.6 | 0 | 0.84 % of control | 0.03 % of control | 0 | 0 | 0 | 38.20 % of control | 0.0003 % of control | –
5 | N=C(N)c1ccc(OCCCCCOc2ccc(C(=N)N)cc2)cc1 [pentamidine, reference compound] | – | – | – | – | – | – | – | – | – | – | 1.46 % of control
6 | N=C(N)c1ccc(-c2coc(-c3ccc(C(=N)N)cc3)c2)cc1 [Compound 1, 2,4-Bis[4-{(amidino)pnehyl}]furan] | 9.1 | 19.0 | 0 | – | 0.44 % of control | – | – | – | – | – | –

Reference: patent US6008247A, “2,4-bis[(4-amidino)phenyl]furans as anti-Pneumocystis carinii agents” (The University of North Carolina at Chapel Hill, priority 1998, dated 1999)
